In patent publication US20240368127A1, “HSD17B13 INHIBITORS AND USES THEREOF” (FL2022-001, Inc., priority 2021, published 2024) one finds IC50 data, which are given here for two molecules.

Each structure is given as a SMILES string.

This assay addresses T1, Recombinant human HSD17B13 enzyme (Homo sapiens, UniProt Q7Z5P4).
T1 sequence (Q7Z5P4 20-300): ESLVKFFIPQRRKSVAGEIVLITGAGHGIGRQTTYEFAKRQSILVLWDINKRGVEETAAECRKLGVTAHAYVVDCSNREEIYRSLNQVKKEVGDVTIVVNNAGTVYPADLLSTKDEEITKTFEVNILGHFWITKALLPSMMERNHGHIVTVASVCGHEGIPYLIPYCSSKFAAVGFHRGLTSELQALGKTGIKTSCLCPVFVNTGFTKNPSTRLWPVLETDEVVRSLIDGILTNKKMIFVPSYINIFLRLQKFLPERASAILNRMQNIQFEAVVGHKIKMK
In words: HSD17b13 NAD(P)H-Glo biochemical assay. Conditions: 50 μM estradiol, 1 mM NAD+, 37° C. for 3 hours; read-out: HSD17β13 IC50. In a few lines: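 Enzyme preincubated with inhibitor 20 min at RT in 20 mM Tris pH7.4, 0.002% Tween-20, 0.02% BSA, then reacted 3 h at 37° C with 50 μM estradiol and 1 mM NAD+ (final). NADH formation read by NAD(P)H-Glo luminescence after 1 h at RT.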

Broadly, the IC50 is the concentration that inhibits the measured activity by half. In the case of `Cn1nc(-c2cc(C(F)(F)F)c(F)c(O)c2F)c2cnc(N3CCN(S(C)(=O)=O)C[C@H]3CC3CCCCC3)nc21` [Compound 15.02, (R)-3-(6-(2-(Cyclohexylmethyl)-4-(methylsulfonyl)piperazin-1-yl)-1-methyl-1H-pyrazolo[3,4-d]pyrimidin-3-yl)-2,6-difluoro-5-(trifluoromethyl)phenol], the 50% inhibitory concentration (IC50) was at most 100 nM.

For `Cn1nc(-c2cc(C(F)(F)F)c(F)c(O)c2F)c2cnc(N3CCOC[C@H]3Cc3ccccc3F)nc21` [Compound 5.25, (R)-2,6-Difluoro-3-(6-(3-(2-fluorobenzyl)morpholino)-1-methyl-1H-pyrazolo[3,4-d]pyrimidin-3-yl)-5-(trifluoromethyl)phenol], the IC50 is at most 100 nM.
